The values that follow come from US4536396A, “Synergistic sweetening compositions” (Pfizer Inc., priority 1983, dated 1985).

Assay [1] is described as follows: Taste quality and sweetening potency in typically prepared edible products (Table III). The text has this:
The ultimate compositions for edible use, or for use as oral hygienic products or as formulated medicinal agents, are readily prepared, using methods generally known in the food technology and pharmaceutical arts. The taste quality of such typically prepared edible products prepared with sucrose, with AS-K alone and with one of present combinations as sweetening agent are summarized in Table III.

A short description of assay [2]: Sensory analysis of relative sweetness intensity and taste quality of aqueous solutions compared with sucrose solutions. Here is the method: The relative sweetness intensity and quality of CP-54,802, AS-K and mixtures of CP-54,802 and AS-K were determined by sensory analysis. These determinations were carried out in a facility designed for controlled tasting, flavor research and evaluation of food additives, including a separate preparation room and individual tasting booths with complete air-conditioning, controlled lighting, running water and a sink for expectoration.
Aqueous solutions of sucrose were prepared at concentrations (w/w) of 2, 3, 4, 5, 6, 7, 8, 9, 10, 11 and 12% along with a sample of one of the test compounds at the levels specified in the test experiments. A beaker containing a solution of the test compound identified only by a coded digit was submitted to the taster by a co-worker along with a beaker containing the above sucrose solutions. The sweetness intensity of the test compound was compared with one or more of the sucrose control solutions to determine whether that particular sucrose reference sample was of lesser, greater or equal sweetness. The taste quality of the test sample was then characterized by comparison with the sucrose solution. In some instances a reference aqueous solution containing either CP-54,802 and/or AS-K alone was also used to characterize the taste quality of mixture of CP-54,802 and AS-K.
After selecting the particular sucrose solution equal in sweetness to the AS-K solution, subsequent test comparisons of the AS-K and sucrose solution at closest sweetness intensity were performed to recheck the intensity value and to characterize the taste quality of the AS-K. By this means, the following results were obtained: […]

For assay [3] the following is noted: cited from earlier work.
Setting [4] is: at 2% sucrose equivalent in water.
Setting [5] is: at 3% sucrose equivalent in water.
Where [6] appears, read: at 4% sucrose equivalent in water.
The mark [7] stands for this setting: at 5% sucrose equivalent in water.
[8] abbreviates: at 6% sucrose equivalent in water.
Where [9] appears, read: at 7% sucrose equivalent in water, AS-K values above 6% only approximate.
Where [10] appears, read: at 8% sucrose equivalent in water, AS-K values above 6% only approximate.
Setting [11] is: at 9% sucrose equivalent in water, AS-K values above 6% only approximate.
Where [12] appears, read: at 10% sucrose equivalent in water, AS-K values above 6% only approximate.
The mark [13] stands for this setting: compared to 10% sucrose in water.
[14] abbreviates: equal in sweetness to 2% sucrose (w/w) in water.
[15] abbreviates: equal in sweetness to 3% sucrose (w/w) in water.
Where [16] appears, read: equal in sweetness to 4% sucrose (w/w) in water.
The mark [17] stands for this setting: equal in sweetness to 5% sucrose (w/w) in water.
Where [18] appears, read: equal in sweetness to 6% sucrose (w/w) in water.
The mark [19] stands for this setting: equal in sweetness to 7% sucrose (w/w) in water.
Where [20] appears, read: equal in sweetness to 8% sucrose (w/w) in water.
Where [21] appears, read: equal in sweetness to 9% sucrose (w/w) in water.
Where [22] appears, read: equal in sweetness to 10% sucrose (w/w) in water.

Each structure is given as a SMILES string.

Consider `OC[C@H]1O[C@@](CO)(O[C@H]2O[C@H](CO)[C@@H](O)[C@H](O)[C@H]2O)[C@@H](O)[C@@H]1O` [Sucrose, reference compound], for which the “Potency of Sweetening Agent in Product” value in assay [1] (7-Up-type carbonated drink), in assay [1] (Cola carbonated drink), in assay [1] (Lemonade drink), in assay [1] (Orange gelatin dessert), in assay [1] (Peppermint hard candy) and in assay [1] (Strawberry drink) was 1 each time. In addition, the “Potency of Sweetening Agent in Product” value in assay [1] (Vanilla cakes), in assay [1] (Vanilla frozen dessert) and in assay [1] (Vanilla pudding) was 1 in each case.

As for `CC1=CC(=O)NS(=O)(=O)O1` [AS-K, 6-Methyl-1,2,3-oxathiazin-4(3H)-one-2,2-dioxide], the “Potency Sucrose = 1” value came to 250 Sucrose = 1 in assay [2] (setting [4]); 200 Sucrose = 1 in assay [2] (setting [5]); 160 Sucrose = 1 in assay [2] (setting [6]); 110 Sucrose = 1 in assay [2] (setting [7]); 90 Sucrose = 1 in assay [2] (setting [8]); 90 Sucrose = 1 in assay [2] (setting [9]). Further, the “Potency Sucrose = 1” value in assay [2] (setting [10]) is on record as 90 Sucrose = 1; in assay [2] (setting [11]), 85 Sucrose = 1; in assay [2] (setting [12]), 80 Sucrose = 1. Further, the Relative sweetness in assay [2] (at concentrations equivalent to 6-10% sucrose) is no more than 90. Besides, the “Concentration (g/100 ml) ≡ 10% Sucrose” value in assay [2] (setting [13]) was found to be 0.1250 g/100 ml. Also, in assay [2] (setting [13]), the “Potency of Mixture” value is on record as 80. For the same molecule, the “Equivalent Concentration %” value in assay [2] (setting [14]) is listed as 0.0080%; in assay [2] (setting [15]), 0.0150%; in assay [2] (setting [16]), 0.0250%; in assay [2] (setting [17]) it was 0.0455%; in assay [2] (setting [18]), 0.0667%; in assay [2] (setting [19]), 0.0777%. Besides, the “Equivalent Concentration %” value in assay [2] (setting [20]) is 0.0889%; in assay [2] (setting [21]), 0.1059%; in assay [2] (setting [22]), 0.1250%. Besides, the “Potency of Sweetening Agent in Product” value is recorded as less than 90 in assay [1] (7-Up-type carbonated drink); 90 in assay [1] (Cola carbonated drink); less than 90 in assay [1] (Lemonade drink); less than 90 in assay [1] (Orange gelatin dessert); less than 90 in assay [1] (Peppermint hard candy); less than 90 in assay [1] (Strawberry drink). Besides, the “Potency of Sweetening Agent in Product” value is reported as 90 in assay [1] (Vanilla cakes), less than 90 in assay [1] (Vanilla frozen dessert) and less than 90 in assay [1] (Vanilla pudding). Besides, the “Sweetness relative to cane sugar” value in assay [3] (in water at concentrations equivalent in sweetness to a 4% solution of cane sugar) is listed as 130. In assay [3] (in water), the “Concentration equivalent to 4% cane sugar” value is 0.031%.

For the molecule `C[C@@H](NC(=O)[C@@H](N)CC(=O)O)C(=O)NC1C(C)(C)SC1(C)C` [CP-54,802, 3-(L-Aspartyl-D-alaninamido)-2,2,4,4-tetramethylthietane], the “Potency Sucrose = 1” value in assay [2] (setting [4]) is 2,900 Sucrose = 1; in assay [2] (setting [5]), 2,850 Sucrose = 1; in assay [2] (setting [6]), 2,800 Sucrose = 1; in assay [2] (setting [7]), 2,500 Sucrose = 1; in assay [2] (setting [8]), 2,300 Sucrose = 1; in assay [2] (setting [9]), 2,250 Sucrose = 1. In addition, the “Potency Sucrose = 1” value is reported as 2,112 Sucrose = 1 in assay [2] (setting [10]), 2,075 Sucrose = 1 in assay [2] (setting [11]) and 2,000 Sucrose = 1 in assay [2] (setting [12]). Also, the “Equivalent Concentration %” value in assay [2] (setting [14]) was found to be 0.00069%; in assay [2] (setting [15]), 0.00105%; in assay [2] (setting [16]), 0.00143%; in assay [2] (setting [17]), 0.002%; in assay [2] (setting [18]) it was 0.0026%; in assay [2] (setting [19]), 0.0031%. The “Equivalent Concentration %” value in assay [2] (setting [20]) is listed as 0.00378%; in assay [2] (setting [21]), 0.0043%; in assay [2] (setting [22]) it was 0.005%.
